Where “and” joins values, the source holds several entries; their conditions need not be identical. Equal values may be shown once. Read-outs that look alike come from different tables or passages of the source.

For orientation: IC50 means the midpoint of a concentration-inhibition curve.

One assay addresses rat PARG (Rattus norvegicus (Rat), UniProt Q9QYM2). Description: High-throughput screening with the TR-FRET PAR turnover assay. It is filed as biochemical. Conditions: 6.7 μM compound; 12.5 nM and 25 nM rat PARG. The procedure:
The NCI Diversity Set II library (1,990 compounds) was screened against rat PARG then human PARG was used to validate and optimize PARG inhibitors. The accuracy of the screen was determined by the calculated Z-scores of control reactions, which were between 0.6 and 0.8 throughout the plates, indicative of high reproducibility (FIG. 2a). […] The rate of TR-FRET signal loss in the presence of each candidate inhibitor was compared to that of control reactions containing DMSO only (FIG. 2b). Initially, 104 compounds were selected that inhibited PARG enzymatic activity at both enzyme concentrations. Thirty-nine of these compounds were discarded as they altered fluorescence intensity of donor or acceptor (F520 and F495) by >40% at the first time point. […] For the selected compounds, gel-based assays were performed to directly monitor inhibition of PARP1 dePARylation by PARG (FIG. 2c).
TR-FRET PAR turnover assay. For a high-throughput screening (HTS) of PARG inhibitors, a high-throughput PARG activity assay was developed using the TR-FRET system. Briefly, the fluorescein molecule (FITC) was enzymatically incorporated into PARP1 in a reaction containing PARP1C (2 μM), the PARP1 DBD (2 μM), a 24 mer nicked DNA oligo (2 μM), and a mixture of unlabeled NAD^+ (Sigma) and FITC-NAD^+ (Trevigen) substrates (total NAD+concentration of 100 μM).
After incubation for 1 hr at 37° C., PARylated PARP1 was desalted using a PD-10 desalting column (GE healthcare) in a buffer containing 25 mM Tris-HCl (pH 7.5), 50 mM NaCl, and 0.01% NP-40 and used as the FRET acceptor. The biotin-tagged BRCT1 domain of XRCC1 (BRCT1, 5 nM) was conjugated with an equimolar concentration of Tb^3+-chelated streptavidin (Life Technologies) in TR-FRET assay buffer (FRET donor). […] The reaction was started by the addition of the FRET pair of FITC-labeled PARP1 (42 nM) and Tb^3+-BRCT1 (5 nM). The TR-FRET signal was subsequently monitored for 60 min.
High-throughput screening of PARG inhibitors. Small molecule inhibitors of PARG were identified by high-throughput screening (HTS) using the TR-FRET PAR turnover assay. Compounds (final concentration of 6.7 μM) from the NCI Diversity Set II library (1,990 compounds) were predispensed into black polystyrene 384-well plates (Corning) using a Hummingbird liquid handler (Digilab). Then, 10 μL of rat PARG^385-972 (12.5 nM and 25 nM) was subsequently dispensed into plates using a multi-drop combi nL reagent dispenser (Thermo Scientific), and incubated with compounds for 1 hr at 4° C. The reaction was initiated by the addition of 20 μl of the premixed FRET pair of FITC-labeled PARP1 (42 nM) and Tb^3+-BRCT1 (5 nM), and the TR-FRET signal was monitored every four minutes for 40 min (11 data points). Hits were selected by visually comparing the rate of the TR-FRET signal decrease in each well to that of negative control reactions containing DMSO (FIG. 1b and see Text for details). The HTS was performed at the High-Throughput Screening Core (HTSC) at Washington University School of Medicine.
(TR-FRET usually uses a lanthanide donor and a delayed reading to cut background.)

In the next assay the target is human PARG (Homo sapiens (Human), UniProt Q86W56). Description: Gel-based PARG activity assay. It is filed as biochemical. The protocol: FIGS. 9a & 9b show structure-activity relationships (SAR) of compounds from five main chemotypes. (FIG. 9a) A total of 34 representative HTS hits and commercially available analogues from each chemotype (FIG. 7 and FIG. 29) were analyzed using the gel-based PARG activity assay. This gel-based assay directly monitors the change of PARylation status of PARP1 as a substrate of PARG. […] The reaction was quenched after a 30 min incubation at room temperature by adding SDS-PAGE sample buffer. PARylated PARP1C runs as a smear on SDS-PAGE that is reduced to a single band by PARG treatment. […] (FIG. 9b) Quantification of the dose-response PARG inhibition by JA2-3 using the gel-based PARG activity assay. hPARG (1 nM) was preincubated with increasing concentrations (0.032-1 μM) of JA2-3 for 1 hr at room temperature before PARylated PARP1C (500 nM) was added. The reaction was quenched after a 30 min incubation at room temperature. PARylated PARP1C migrates slower than unmodified PARP1C and was quantified using ImageJ. To determine the IC50 value, the dose-response data were plotted as a function of JA2-3 concentration and fitted to the four-parameter logistic equation using SigmaPlot. The rate of the PARG-dependent signal loss in the TR-FRET PAR turnover assay is not equivalent to the steady-state rate of PAR turnover, because the TR-FRET assay can't detect signal loss until the length of PAR chains become shorter than 7 ADP-ribose units. Therefore, the gel-based PARG activity assay to accurately determine the IC50 values throughout the present disclosure.
human PARG, sequence (Q86W56 389-976): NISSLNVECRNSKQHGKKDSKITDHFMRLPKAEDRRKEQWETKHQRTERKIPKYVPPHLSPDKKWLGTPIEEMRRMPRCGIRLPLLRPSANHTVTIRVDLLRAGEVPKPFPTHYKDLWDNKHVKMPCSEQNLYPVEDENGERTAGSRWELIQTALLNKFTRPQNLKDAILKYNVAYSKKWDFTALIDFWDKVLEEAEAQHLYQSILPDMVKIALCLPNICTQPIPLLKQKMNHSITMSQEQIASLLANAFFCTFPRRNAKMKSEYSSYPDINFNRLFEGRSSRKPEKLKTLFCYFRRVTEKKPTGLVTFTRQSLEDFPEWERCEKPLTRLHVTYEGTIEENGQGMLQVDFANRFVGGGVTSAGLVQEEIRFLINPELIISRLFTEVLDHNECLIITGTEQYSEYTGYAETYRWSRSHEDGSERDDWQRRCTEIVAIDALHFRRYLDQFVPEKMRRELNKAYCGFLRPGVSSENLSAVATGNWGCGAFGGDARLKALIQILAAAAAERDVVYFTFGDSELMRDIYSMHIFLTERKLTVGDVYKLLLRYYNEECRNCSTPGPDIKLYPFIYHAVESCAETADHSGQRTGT
Gel-based PARG activity assay. PARP1C (2 μM) is enzymatically auto-modified in a reaction containing the PARP1 DBD (2 μM), a 24 mer nicked DNA oligo (2 μM), and NAD+(300 μM) for 1 hr at 37° C., as described previously (Kim et al., 2012). Human PARG^389-976 (1 nM) was pre-incubated with compounds for 1 hr at room temperature. The reaction was initiated by addition of PARylated PARP1 (final concentration of 500 nM) and quenched after 30 min incubation at room temperature by adding SDS-PAGE sample buffer. The gel was visualized by sypro-ruby staining (Kim et al., 2012) and the retained PARylated PARP1C species were quantified using ImageJ (Schneider et al., 2012).
PARylated PARP1C that migrates slower than unmodified PARP1C was quantified. […] The IC50 values were determined by fitting the dose-response data for each compound to a four-parameter logistic equation using SigmaPlot (Systat Software Inc.).
To test specificity of JA2131, human PARG^389-976 (1 nM) was pre-incubated with JA2131 (5, 10, and 20 μM) in the presence and absence of 0.1% Triton-X 100 or 0.1 mg/ml BSA for 1 hr at room temperature. The reaction was initiated, quenched, visualized, and quantified as described above.

The subject of another assay is PARG. As to conditions: Falsig et al., 2004; read-out: IC50 of PARG inhibition; cited from earlier work.
Setting [1] is: Table 1, PARG inhibition, read-out: IC50.
[2] abbreviates: hPARG 1 nM, PARylated PARP1C 500 nM, read-out: IC50 of PARG inhibition.
Where [3] appears, read: hPARG 1 nM, PARylated PARP1C 500 nM.

rat PARG, sequence (Q9QYM2 385-972): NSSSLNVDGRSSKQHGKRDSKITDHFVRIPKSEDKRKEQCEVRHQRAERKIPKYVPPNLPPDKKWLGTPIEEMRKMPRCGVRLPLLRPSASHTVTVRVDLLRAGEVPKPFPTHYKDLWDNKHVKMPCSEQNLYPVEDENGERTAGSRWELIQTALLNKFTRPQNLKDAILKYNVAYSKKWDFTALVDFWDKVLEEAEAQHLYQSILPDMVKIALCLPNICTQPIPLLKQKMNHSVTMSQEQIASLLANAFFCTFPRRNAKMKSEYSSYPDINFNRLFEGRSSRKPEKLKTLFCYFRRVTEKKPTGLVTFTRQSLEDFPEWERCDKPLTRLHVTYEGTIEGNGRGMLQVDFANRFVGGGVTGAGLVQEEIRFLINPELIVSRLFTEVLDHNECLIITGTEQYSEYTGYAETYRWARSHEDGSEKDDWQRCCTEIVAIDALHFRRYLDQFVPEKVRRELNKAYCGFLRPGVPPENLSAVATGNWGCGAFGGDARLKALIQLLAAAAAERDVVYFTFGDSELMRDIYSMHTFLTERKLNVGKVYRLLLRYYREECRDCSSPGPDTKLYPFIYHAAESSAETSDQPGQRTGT

In the case of `Cc1cc(O)c(-c2cc(O)c(C)cc2O)cc1O` [Compound 2805], at rat PARG, the “~100% PARG inhibition at both 12.5 nM and 25 nM” value (shortened to “~100% PARG inhibition”) is listed as “Yes”.

`FC(F)(F)c1nc2ccc(SSc3ccc4nc(C(F)(F)F)[nH]c4c3)cc2[nH]1` [Compound 659162]: the “~100% PARG inhibition” value at rat PARG is “Yes”. In the case of `O=[N+]([O-])c1ccc(S(=O)(=O)Cc2ccccc2)c2nonc12` [Compound 228148], on rat PARG, the “~100% PARG inhibition” value was “Yes”.

On to `Cn1c(=O)[nH]c2nc(SCCN3CCOCC3)[nH]c2c1=O` [JA2120], for which the IC50 at human PARG (setting [1]) and on human PARG (setting [2]) was 25700 nM each time.

In the case of `Cn1c(=S)c2[nH]c(SCCN3CCOCC3)nc2n(C)c1=O` [LPF-I-146-1], the IC50 at human PARG (setting [1]) is 400 nM. With `O=c1[nH]c2[nH]c(=S)[nH]c(=S)c2[nH]1` [JA2-3], the figures for the IC50 at human PARG (setting [1]) and at human PARG (setting [2]) were 100 nM and 100 to 1000 nM, respectively. Moreover, at human PARG (setting [3]), the “IC50 of PARG inhibition” value was “sub-micromolar”. Besides, at rat PARG, the “~100% PARG inhibition” value was “Yes”. On to `Cn1c(=O)c2[nH]c(CCCC(=O)O)nc2n(C)c1=O` [JA2-2], for which, at human PARG (setting [1]), the IC50 is more than 100000 nM. On to `O=C1C=CC(=Nc2cccc3c(N=C4C=CC(=O)O4)cccc23)O1` [Compound 69575], for which, at rat PARG, the “~100% PARG inhibition” value was “Yes”. For the molecule `Cc1cc(N)c2cc(OCCOc3ccc4nc(C)cc(N)c4c3)ccc2n1` [Compound 22907], on rat PARG, the “~100% PARG inhibition” value was “Yes”.

Take `CCC(=O)OCN1C(=O)C=CC1=O` [Compound 19630]: the “~100% PARG inhibition” value on rat PARG is “Yes”.

For the molecule `Cn1c(=O)c2[nH]c(SCCN3CCOCC3)nc2n(C)c1=S` [JA2-5], the results for the IC50 on human PARG (setting [1]) and at human PARG (setting [2]) were 1000 nM and 100 to 1000 nM, respectively. The “IC50 of PARG inhibition” value against human PARG (setting [3]) is “sub-micromolar”. Further, on rat PARG, the “~100% PARG inhibition” value is “Yes”. Turning to `Cn1c(=O)c2[nH]c(SCc3ccccc3)nc2n(C)c1=O` [LPF-I-51-1], the IC50 on human PARG (setting [1]) was more than 25000 nM. For the molecule `O=C(OC[C@H]1O[C@@H](OC(=O)c2cc(O)c(O)c(OC(=O)c3cc(O)c(O)c(O)c3)c2)[C@H](OC(=O)c2cc(O)c(O)c(OC(=O)c3cc(O)c(O)c(O)c3)c2)[C@@H](OC(=O)c2cc(O)c(O)c(OC(=O)c3cc(O)c(O)c(O)c3)c2)[C@@H]1OC(=O)c1cc(O)c(O)c(OC(=O)c2cc(O)c(O)c(O)c2)c1)c1cc(O)c(O)c(OC(=O)c2cc(O)c(O)c(O)c2)c1` [Gallotannin], the IC50 in the assay with PARG was less than 5000 nM. Regarding `O=S(=O)(O)c1cc(O)c2c(N=Cc3ccccc3O)cc(S(=O)(=O)O)cc2c1` [Compound 88947], on rat PARG, the “~100% PARG inhibition” value is on record as “Yes”. The same measure, in the same setting: with `O=c1[nH][nH]c(=S)c(=O)[nH]1` [Compound 107684] the entry was “Yes”.

Consider `Cn1c(=O)c2c(ncn2CCCC(=O)O)n(C)c1=O` [JA2-9], for which the IC50 at human PARG (setting [1]) was more than 100000 nM.

Turning to `Cn1c(=O)c2[nH]c(SCC(=O)OC(C)(C)C)nc2n(C)c1=O` [LPF-I-27-1], the IC50 on human PARG (setting [1]) was more than 25000 nM. Consider `Cn1c(=O)c2[nH]c(SCc3ccc(F)cc3)nc2n(C)c1=O` [LPF-I-53-1], for which the IC50 at human PARG (setting [1]) was found to be 65000 nM.

Regarding `Cc1ccc(CSc2nc3c([nH]2)c(=O)n(C)c(=O)n3C)cc1` [LPF-I-64-1], at human PARG (setting [1]), the IC50 is more than 25000 nM. Take `Cn1c(=O)c2[nH]c(SCCN3C(=O)c4ccccc4C3=O)nc2n(C)c1=O` [LPF-I-81-1]: on human PARG (setting [1]), the IC50 was more than 25000 nM. For the molecule `CCOC(=O)CSc1nc2c([nH]1)c(=O)n(C)c(=O)n2C` [LPF-I-35-1], the IC50 at human PARG (setting [1]) is more than 25000 nM. In the case of `Cc1ccc(C2=C(Cl)C(=O)C(c3ccc(C)cc3)=C(Cl)C2=O)cc1` [Compound 121838], the “~100% PARG inhibition” value on rat PARG is listed as “Yes”.

As for `Cn1c(=O)c2[nH]c(SCc3c(Cl)cccc3Cl)nc2n(C)c1=O` [LPF-I-68-1], the IC50 on human PARG (setting [1]) is more than 25000 nM. The same measure, in the same setting: with `CCOC(=O)CCSc1nc2c([nH]1)c(=O)n(C)c(=O)n2C` [LPF-I-83-1] the figure was more than 25000 nM. As to `Cn1c(=S)[nH]c2nc(SCCN3CCCC3)[nH]c2c1=O` [JA2-4], the IC50 at human PARG (setting [1]) is 900 nM; at human PARG (setting [2]) it was 100 to 1000 nM and 900 nM. The “IC50 of PARG inhibition” value against human PARG (setting [3]) is reported as “sub-micromolar”. On to `O=C1C(Cl)=C(Nc2ccc(S(=O)(=O)Nc3ccccn3)cc2)C(=O)c2ccccc21` [Compound 45382], for which the “~100% PARG inhibition” value on rat PARG is recorded as “Yes”.

The values are drawn from US12491188B2, “Small molecule PARG inhibitors and methods of use thereof” (Board of Regents, The University of Texas System, priority 2019, dated 2025).
